“And” between values parts separate entries of the source, which are not always exact repeats. Equal values may be shown once. Read-outs that look alike come from different tables or passages of the source. Values belong to the compound of their own block, whether it stands above or below them.
Columns and labels:
JNK1 (MAPK8) = molecular target: T1, JNK1 (MAPK8) (Homo sapiens, UniProt P45983); experiment: KdELECT Kd determination, JNK1; details: 11-point 3-fold serial dilution, duplicate; read-out: Kd for the inhibition of nucleotide binding, JNK1 (MAPK8)
T1 construct: purchased DiscoverX
Description: (§1) The screening platform employs an active site-directed competition binding assay to quantitatively measure interactions between test compounds and targeting kinases. […] To determine dissociation constants (Kds) of compounds on different targets, an 11-point 3-fold serial dilution of each test compound was tested in independent duplicate assays.
(§2) This assay has been previously used with many CDK8/19 inhibitors, including cortistatin A and its equipotent analog dCA [20, 21]; 15w.

CDK8 [1] = molecular target: T2, CDK8 (Homo sapiens, UniProt P49336); experiment: KdELECT Kd determination, CDK8; format: binding; set-up: purchased DiscoverX
Description: (§3) To determine dissociation constants (Kds) of compounds on different targets, an 11-point 3-fold serial dilution of each test compound was tested in independent duplicate assays.
Target sequence in this assay (P49336 whole entry): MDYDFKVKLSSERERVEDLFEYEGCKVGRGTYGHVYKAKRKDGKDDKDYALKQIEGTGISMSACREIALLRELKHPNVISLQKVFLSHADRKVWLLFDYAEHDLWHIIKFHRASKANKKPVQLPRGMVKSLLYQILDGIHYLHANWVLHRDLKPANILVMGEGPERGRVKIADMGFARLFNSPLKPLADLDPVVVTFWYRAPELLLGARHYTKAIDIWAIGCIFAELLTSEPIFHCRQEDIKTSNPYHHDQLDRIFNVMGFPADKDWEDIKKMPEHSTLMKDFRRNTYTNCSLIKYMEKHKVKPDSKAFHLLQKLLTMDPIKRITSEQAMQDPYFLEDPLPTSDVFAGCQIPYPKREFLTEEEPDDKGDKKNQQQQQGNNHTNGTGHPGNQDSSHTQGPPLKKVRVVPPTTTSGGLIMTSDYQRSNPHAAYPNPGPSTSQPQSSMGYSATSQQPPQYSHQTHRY

[2] = system: STAT1 S727 phosphorylation; experiment: Basal STAT1 S727 phosphorylation in rat neurons in culture; format: cell-based; details: not shown
[3] = system: STAT1 S727 phosphorylation; experiment: Western blot of STAT1 S727 phosphorylation in NIH 3T3 cells; format: cell-based, murine; details: 1 μM
Description: (§4) Cells were cultured in 60-mm dishes and treated under different conditions before being lysed in RIPA lysis buffer with protease/phosphatase inhibitor cocktail. The protein concentration of extracts was determined using the DC protein assay (Bio-Rad Laboratories). Protein samples (50 μg) were resolved on 4–12% Express-Plus PAGE gels in Tris-MOPS (SDS) running buffer (GenScript, Piscataway, NJ, USA), transferred to PVDF membranes and incubated at 4 °C overnight with primary antibodies STAT1 (sc-592, Santa Cruz Biotechnology, Dallas, TX, USA) and pSTAT1-Ser727 (#8826, Cell Signaling Technology, Danvers, MA, USA) followed by anti-rabbit (NA934, GE Healthcare, Chicago, IL, USA) secondary antibodies. Bands were visualized with Western Lighting Plus ECL detection reagent (Perkin Elmer, Waltham, MA, USA) using ChemiDoc Touch™ (Bio-Rad). Images were analyzed using ImageLab (Bio-Rad) and ImageJ (version 1.52p) software for protein signal quantification.

GSK3A = molecular target: T3, GSK3A (Homo sapiens, UniProt P49840); experiment: KdELECT Kd determination, GSK3A; details: 11-point 3-fold serial dilution, duplicate; read-out: Kd for the inhibition of nucleotide binding, GSK3A
T3 construct: purchased DiscoverX
T3 sequence (P49840 whole entry): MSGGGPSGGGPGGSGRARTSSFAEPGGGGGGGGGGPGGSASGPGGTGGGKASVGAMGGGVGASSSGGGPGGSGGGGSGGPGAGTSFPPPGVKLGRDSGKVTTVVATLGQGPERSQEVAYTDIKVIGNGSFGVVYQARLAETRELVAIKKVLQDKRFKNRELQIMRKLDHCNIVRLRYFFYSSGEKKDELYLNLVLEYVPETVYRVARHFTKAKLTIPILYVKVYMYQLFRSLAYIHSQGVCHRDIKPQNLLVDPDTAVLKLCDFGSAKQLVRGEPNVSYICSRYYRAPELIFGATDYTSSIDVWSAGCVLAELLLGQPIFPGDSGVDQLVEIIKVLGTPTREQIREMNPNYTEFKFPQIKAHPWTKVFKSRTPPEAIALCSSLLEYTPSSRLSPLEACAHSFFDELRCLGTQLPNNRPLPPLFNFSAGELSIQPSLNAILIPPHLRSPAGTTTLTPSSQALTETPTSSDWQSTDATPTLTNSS
Description: as §1, §2

[4] = system: STAT1 S727 phosphorylation; set-up: method as in patent application US 2017/0115308A1; details: ref patent application US 2017/0115308A1; cited from earlier work
PIKFYVE = PIKFYVE (Homo sapiens, UniProt Q9Y2I7); experiment: KdELECT Kd determination, PIKFYVE; set-up: purchased DiscoverX; details: 11-point 3-fold serial dilution, duplicate; read-out: Kd for the inhibition of nucleotide binding, PIKFYVE
Chain of PIKFYVE (Q9Y2I7 whole entry): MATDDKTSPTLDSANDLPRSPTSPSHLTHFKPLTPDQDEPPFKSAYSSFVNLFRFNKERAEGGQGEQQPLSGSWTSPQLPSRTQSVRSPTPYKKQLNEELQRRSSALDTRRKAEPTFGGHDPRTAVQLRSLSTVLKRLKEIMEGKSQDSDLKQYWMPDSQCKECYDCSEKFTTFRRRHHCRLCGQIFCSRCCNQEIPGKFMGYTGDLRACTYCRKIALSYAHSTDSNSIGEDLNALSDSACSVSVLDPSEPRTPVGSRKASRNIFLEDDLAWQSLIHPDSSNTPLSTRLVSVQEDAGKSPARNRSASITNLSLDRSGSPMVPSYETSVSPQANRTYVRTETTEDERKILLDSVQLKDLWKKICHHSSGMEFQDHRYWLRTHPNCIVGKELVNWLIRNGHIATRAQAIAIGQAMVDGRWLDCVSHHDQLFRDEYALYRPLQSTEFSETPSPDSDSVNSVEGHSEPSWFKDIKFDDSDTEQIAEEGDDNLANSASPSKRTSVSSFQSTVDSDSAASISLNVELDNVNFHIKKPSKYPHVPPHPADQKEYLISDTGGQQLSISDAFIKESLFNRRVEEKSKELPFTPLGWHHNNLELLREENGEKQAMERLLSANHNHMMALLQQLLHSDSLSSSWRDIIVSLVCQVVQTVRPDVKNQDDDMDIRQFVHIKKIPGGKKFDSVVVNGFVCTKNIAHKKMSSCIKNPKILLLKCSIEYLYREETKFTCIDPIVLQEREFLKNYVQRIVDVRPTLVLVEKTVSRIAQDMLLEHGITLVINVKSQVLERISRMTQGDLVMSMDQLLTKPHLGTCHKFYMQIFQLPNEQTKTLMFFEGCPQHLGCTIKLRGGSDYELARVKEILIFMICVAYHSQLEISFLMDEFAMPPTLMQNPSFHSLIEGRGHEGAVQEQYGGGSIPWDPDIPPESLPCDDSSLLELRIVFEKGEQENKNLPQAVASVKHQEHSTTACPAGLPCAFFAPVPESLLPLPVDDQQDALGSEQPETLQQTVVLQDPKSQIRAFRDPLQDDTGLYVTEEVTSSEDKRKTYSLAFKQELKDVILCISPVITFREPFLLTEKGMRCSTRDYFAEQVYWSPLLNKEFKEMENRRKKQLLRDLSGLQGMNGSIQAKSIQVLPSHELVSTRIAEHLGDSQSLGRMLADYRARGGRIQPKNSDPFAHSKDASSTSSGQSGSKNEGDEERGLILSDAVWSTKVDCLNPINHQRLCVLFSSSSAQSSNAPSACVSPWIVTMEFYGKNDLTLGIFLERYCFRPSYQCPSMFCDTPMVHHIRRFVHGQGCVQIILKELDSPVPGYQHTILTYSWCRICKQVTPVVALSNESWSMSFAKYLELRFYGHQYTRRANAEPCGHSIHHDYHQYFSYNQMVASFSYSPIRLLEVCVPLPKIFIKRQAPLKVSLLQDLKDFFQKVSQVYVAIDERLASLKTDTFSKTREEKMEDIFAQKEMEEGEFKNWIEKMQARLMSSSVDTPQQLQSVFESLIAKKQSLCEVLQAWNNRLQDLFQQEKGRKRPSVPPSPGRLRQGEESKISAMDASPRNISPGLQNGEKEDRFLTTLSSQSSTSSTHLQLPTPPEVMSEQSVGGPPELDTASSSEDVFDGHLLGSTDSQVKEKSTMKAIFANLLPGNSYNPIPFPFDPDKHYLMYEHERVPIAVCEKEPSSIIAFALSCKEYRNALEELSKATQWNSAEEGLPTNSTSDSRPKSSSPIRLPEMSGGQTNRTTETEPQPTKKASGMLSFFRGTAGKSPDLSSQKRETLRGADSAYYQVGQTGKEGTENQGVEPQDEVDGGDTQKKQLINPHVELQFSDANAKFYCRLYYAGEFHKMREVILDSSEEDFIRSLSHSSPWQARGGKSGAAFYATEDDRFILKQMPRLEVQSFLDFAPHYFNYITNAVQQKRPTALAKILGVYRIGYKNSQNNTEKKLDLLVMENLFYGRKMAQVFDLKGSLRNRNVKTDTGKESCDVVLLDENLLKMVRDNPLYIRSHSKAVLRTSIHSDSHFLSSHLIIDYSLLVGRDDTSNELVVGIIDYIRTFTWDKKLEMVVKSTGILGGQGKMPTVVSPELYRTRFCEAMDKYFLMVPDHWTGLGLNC
Description: as §1, §2

MAP4K2 = molecular target: T4, MAP4K2 (Homo sapiens, UniProt Q12851); experiment: KdELECT Kd determination, MAP4K2; details: 11-point 3-fold serial dilution, duplicate; read-out: Kd for the inhibition of nucleotide binding, MAP4K2
T4 construct: purchased DiscoverX
T4 sequence (Q12851 1-820): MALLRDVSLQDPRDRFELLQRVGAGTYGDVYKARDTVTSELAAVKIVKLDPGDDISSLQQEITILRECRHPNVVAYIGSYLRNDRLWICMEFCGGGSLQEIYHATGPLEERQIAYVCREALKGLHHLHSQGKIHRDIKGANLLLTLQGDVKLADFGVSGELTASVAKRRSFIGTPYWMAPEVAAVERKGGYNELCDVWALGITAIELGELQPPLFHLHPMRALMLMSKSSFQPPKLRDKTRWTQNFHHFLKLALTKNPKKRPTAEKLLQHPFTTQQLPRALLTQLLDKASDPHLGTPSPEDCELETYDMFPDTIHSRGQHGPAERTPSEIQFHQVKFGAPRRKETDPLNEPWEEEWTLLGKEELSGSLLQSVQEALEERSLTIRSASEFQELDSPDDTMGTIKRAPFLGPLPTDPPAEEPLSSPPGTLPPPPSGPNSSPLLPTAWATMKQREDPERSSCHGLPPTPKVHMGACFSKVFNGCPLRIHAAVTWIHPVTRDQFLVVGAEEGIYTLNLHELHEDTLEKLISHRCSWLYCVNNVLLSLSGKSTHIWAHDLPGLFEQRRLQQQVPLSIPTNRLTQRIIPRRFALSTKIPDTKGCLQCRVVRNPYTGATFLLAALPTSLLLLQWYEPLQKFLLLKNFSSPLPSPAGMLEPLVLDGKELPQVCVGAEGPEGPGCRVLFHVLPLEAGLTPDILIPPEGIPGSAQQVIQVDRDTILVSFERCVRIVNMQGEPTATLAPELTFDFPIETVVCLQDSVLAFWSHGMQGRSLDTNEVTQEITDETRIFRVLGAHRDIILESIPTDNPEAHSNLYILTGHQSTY
Description: as §1, §2

CDK8 [5] = molecular target: T2, CDK8; experiment: Cell-based QPCR assay of CDK8/19-dependent gene expression, HEK293 CDK19 single-knockout (19KO) cells; set-up: CDK19 single-knockout (19KO); endogenous in cells; host or cells: HEK293 CDK19 knockout (19KO); details: HEK293 19KO, 1 h pre-treatment, then 10 ng/mL TNFα 2 h
Target sequence in this assay (P49336 whole entry): as the sequence (P49336 whole entry) above
Target sequence in this assay (P24863 whole entry partner): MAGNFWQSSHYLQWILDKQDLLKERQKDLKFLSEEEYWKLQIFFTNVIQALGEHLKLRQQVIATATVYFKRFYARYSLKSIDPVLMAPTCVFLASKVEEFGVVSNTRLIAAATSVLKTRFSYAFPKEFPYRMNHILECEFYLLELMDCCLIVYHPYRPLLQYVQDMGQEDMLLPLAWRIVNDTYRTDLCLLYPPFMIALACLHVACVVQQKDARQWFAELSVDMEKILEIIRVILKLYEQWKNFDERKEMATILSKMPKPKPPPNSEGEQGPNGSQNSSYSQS
Description: (§5) CDK8/CDK19 single knockout and double knockout derivatives of human embryonic kidney (HEK) 293 cells (ATCC CRL-1573) were generated as previously described [18]. All cells were cultured in DMEM (high-glucose) media supplemented with 10% fetal bovine serum (FBS) and Penicillin-Streptomycin-Glutamine (1×) at 37 °C with 5% CO2 and routinely confirmed to be free of mycoplasma.
(§6) Total RNA was extracted using RNAeasy Mini Kit (Qiagen, Germantown, MD, USA) and 1 µg of total RNA was used to generate cDNA using iScript cDNA synthesis kit (Bio-Rad Laboratories, Hercules, CA, USA). Gene expression was quantified using iTaq Universal SYBR green super mix using CFX384 Real-Time System (Bio-Rad).
(§7) The IC50 values for different inhibitors in inhibiting CDK8/19-dependent gene expression were calculated using a three-parameter least square (ordinary) fitting method with GraphPad Prism 7.0 (GraphPad Software, San Diego, CA, USA). The Kruskal–Wallis non-parametric ANOVA was used to compare gene expression levels under no-inhibitor conditions between wild-type cells and knockout derivatives (8KO, 19KO and dKO) with GraphPad Prism 7.0.
(§8) Cells were pre-treated with different concentrations of CDK8/19 inhibitors for 1 h and then 10 ng/mL TNFα, an inducer of transcription factor NFκB, which is potentiated by CDK8/19 [5], was added for 2 h before RNA extraction. QPCR was carried out to quantify CDK8/19-regulated expression of NFκB-inducible genes CXCL1 and CXCL8 and the basal expression of MYC.

STK16 = molecular target: T5, STK16 (Homo sapiens, UniProt O75716); experiment: KdELECT Kd determination, STK16; details: 11-point 3-fold serial dilution, duplicate; read-out: Kd for the inhibition of nucleotide binding, STK16
T5 construct: purchased DiscoverX
T5 sequence (O75716 whole entry): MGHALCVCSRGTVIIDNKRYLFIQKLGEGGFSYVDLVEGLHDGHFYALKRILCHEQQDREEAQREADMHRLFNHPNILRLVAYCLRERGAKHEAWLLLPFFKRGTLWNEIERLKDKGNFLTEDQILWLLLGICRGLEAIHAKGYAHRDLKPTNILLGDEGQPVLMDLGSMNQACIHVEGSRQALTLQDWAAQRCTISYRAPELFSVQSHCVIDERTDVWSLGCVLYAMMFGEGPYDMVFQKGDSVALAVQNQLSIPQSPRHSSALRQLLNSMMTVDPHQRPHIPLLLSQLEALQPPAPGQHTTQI
Description: as §1, §2

[6] = system: STAT1 S727 phosphorylation; experiment: Western blot of STAT1 S727 phosphorylation in 293-WT cells; format: cell-based, human; details: 1 μM
Description: as §4

CDK8/19 = experiment: Cell-based QPCR assay of CDK8/19-dependent gene expression, HEK293 parental (WT) cells; set-up: species or system human
Description: All cells were cultured in DMEM (high-glucose) media supplemented with 10% fetal bovine serum (FBS) and Penicillin-Streptomycin-Glutamine (1×) at 37 °C with 5% CO2 and routinely confirmed to be free of mycoplasma.
as §6
The IC50 values for different inhibitors in inhibiting CDK8/19-dependent gene expression were calculated using a three-parameter least square (ordinary) fitting method with GraphPad Prism 7.0 (GraphPad Software, San Diego, CA, USA).
as §8

[7] = set-up: method as in PMID 27935476; details: colon cancer and leukemia mouse xenograft models; cited from earlier work
GSK3β = molecular target: T6, GSK3β (Homo sapiens, UniProt P49841); experiment: ADP-Glo Kinase Assay, GSK3β kinase activity; format: biochemical; details: 25 μM ATP, 60 min, room temperature
T6 construct: purchased Promega
T6 sequence (P49841 whole entry): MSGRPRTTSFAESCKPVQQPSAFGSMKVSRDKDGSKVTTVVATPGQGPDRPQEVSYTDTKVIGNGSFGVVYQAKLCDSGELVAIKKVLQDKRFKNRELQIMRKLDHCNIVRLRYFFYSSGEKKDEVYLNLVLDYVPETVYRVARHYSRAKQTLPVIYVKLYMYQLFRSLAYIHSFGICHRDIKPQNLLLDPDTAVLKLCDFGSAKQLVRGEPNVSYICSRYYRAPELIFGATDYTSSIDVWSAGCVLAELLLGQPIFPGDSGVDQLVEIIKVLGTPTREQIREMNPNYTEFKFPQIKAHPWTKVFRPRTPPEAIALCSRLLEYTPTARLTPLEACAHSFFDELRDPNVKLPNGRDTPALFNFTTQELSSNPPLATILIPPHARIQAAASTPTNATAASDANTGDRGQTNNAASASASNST
Description: Effects of different compounds on GSK3β kinase activity were evaluated using ADP-Glo^TM Kinase Assay kit and GSK3β Kinase Enzyme System (Promega, Madison, WI, USA). Kinase reactions were carried out at room temperature for 60 min. Each reaction contained 1 ng GSK3β enzyme, 25 μM ATP, 0.2 μg/μL GSK3 substrate and test compounds at different concentrations. Equal volume of ADP-Glo reagent was then added to kinase reaction and incubated at room temperature for 40 min, followed by the addition of Kinase Detection Reagent and incubation at room temperature for another 20 min. Bioluminescence signals were measured in 384-well plates using ChemiDoc Touch™ (Bio-Rad) and ImageLab software (Bio-Rad, Version 5.2.1 build 11). Effects of inhibitors were presented as relative kinase activity, calculated from […].

[8] = system: non-dechorionated embryos of zebrafish TU strain; experiment: Zebrafish toxicity assay, non-dechorionated embryos (TU strain); format: in vivo; details: all the tested concentrations (0.5 μM, 1 μM and 2 μM); 3-5 days
Description: The toxicity studies in non-dechorionated embryos of zebrafish TU strain were approved by the Institutional Animal Care and Use Committee of the University of South Carolina. The studies were conducted in sterile 24-well plates with one 24 hpf embryo in each well in a 1 mL volume of egg water. For each plate, 6 wells were treated with vehicle control and the other 18 wells (i.e., biological replicates) were treated with different CDK8/19 inhibitors at different concentrations. […] All the data from the plates with at least five healthy vehicle-treated embryos on day 5 were compiled together for final data analysis.

dogs = details: cited from earlier work
CDK19 [9] = molecular target: T7, CDK19 (Homo sapiens, UniProt Q9BWU1); experiment: Cell-based QPCR assay of CDK8/19-dependent gene expression, HEK293 CDK8 single-knockout (8KO) cells; set-up: CDK8 single-knockout (8KO); endogenous in cells; host or cells: HEK293 CDK8 knockout (8KO); details: 8KO, HEK293 8KO, 1 h pre-treatment, then 10 ng/mL TNFα 2 h
Target sequence in this assay (Q9BWU1 whole entry): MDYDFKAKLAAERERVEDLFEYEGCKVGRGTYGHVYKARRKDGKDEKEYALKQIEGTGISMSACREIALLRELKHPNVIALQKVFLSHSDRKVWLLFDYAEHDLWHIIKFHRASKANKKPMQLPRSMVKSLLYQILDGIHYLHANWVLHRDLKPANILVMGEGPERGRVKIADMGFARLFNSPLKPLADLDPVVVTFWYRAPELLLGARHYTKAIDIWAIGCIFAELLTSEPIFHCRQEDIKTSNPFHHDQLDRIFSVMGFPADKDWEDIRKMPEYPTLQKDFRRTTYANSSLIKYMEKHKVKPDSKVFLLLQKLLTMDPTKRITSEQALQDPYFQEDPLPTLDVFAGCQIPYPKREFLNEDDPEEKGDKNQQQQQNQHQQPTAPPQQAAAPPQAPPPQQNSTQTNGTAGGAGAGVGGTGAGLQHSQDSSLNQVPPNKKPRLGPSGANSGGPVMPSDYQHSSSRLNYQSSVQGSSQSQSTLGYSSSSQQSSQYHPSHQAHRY
Target sequence in this assay (P24863 whole entry partner): as the sequence (P24863 whole entry partner) above
Description: as §5, §6, §7, §8

GSK3B = molecular target: T8, GSK3B (Homo sapiens, UniProt P49841); experiment: KdELECT Kd determination, GSK3B; details: 11-point 3-fold serial dilution, duplicate; read-out: Kd for the inhibition of nucleotide binding, GSK3B
T8 construct: purchased DiscoverX
T8 sequence (P49841 whole entry): as the sequence (P49841 whole entry) above
Description: as §3

[10] = system: dechorionated zebrafish embryos (Danio rerio, AB strain); experiment: Zebrafish toxicity assay, mechanically dechorionated embryos (AB strain); format: in vivo; details: 1 μM; starting after 72 hpt
Description: The toxicity screen using dechorionated zebrafish embryos (Danio rerio, AB strain) was performed by Arkana Laboratories, Little Rock, AR, as a service. The toxicity of different CDK8/19 inhibitors was evaluated in sterile 96-well plates with U-shaped bottoms. 12 wells (i.e., biological replicates) per test chemical and the vehicle control (0.1% DMSO) were used and the experiment was performed in triplicate. Treatment was performed via addition of 20 µL of 10× concentrations of each tested compound in 1% DMSO-containing egg water to each well containing one 24 hpf (hours post fertilization) mechanically-dechorionated embryo in 180 µL volume of egg water (i.e., 0.1% final DMSO concentration). The fish embryos cultured at 28.5 °C were examined at 24, 48, 72 and 96 h post treatment (hpt) and scored as “healthy”, “abnormal” or “dead”. Phenotypes observed and assessed as abnormal included: cardiac edema (intermediate and severe stages), overall edema, enlarged head, malformation of the eyes, curved body axis, shortened body axis and malformation of the tail. […] Positive control 3,4-dichloroaniline (3,4-DCA) was tested at 8 mg/L.

rats = details: cited from earlier work
CDK19 [11] = molecular target: T7, CDK19; experiment: KdELECT Kd determination, CDK19; format: binding; set-up: purchased DiscoverX
Description: as §3
Target sequence in this assay (Q9BWU1 whole entry): as the sequence (Q9BWU1 whole entry) above

Kd (JNK1 (MAPK8)): 7.2 µM
Kd (CDK8 [1]; 11-point 3-fold serial dilution, duplicate, read-out: Kd for the inhibition of nucleotide binding, CDK8): 0.059 µM
Kd (GSK3A): > 30 µM
Kd (PIKFYVE): 14 µM
Kd (MAP4K2): 0.57 µM
IC50 (CDK8 [5]; read-out: IC50, CXCL1 mRNA expression, 19KO): 0.07 µM
IC50 (CDK8 [5]; read-out: IC50, CXCL8 mRNA expression, 19KO): 0.071 µM
IC50 (CDK8 [5]; read-out: IC50, MYC mRNA expression, 19KO): 0.051 µM
Kd (STK16): 2.2 µM
Compound: CN1CCN(C(=O)c2ccc3cc(CCNc4ncnc5ccc(C#N)cc45)ccc3c2)CC1 [Senexin B]
Effect on basal STAT1 S727 phosphorylation in rat neurons in culture [2]: did not detect any effect
Effect on STAT1 S727 phosphorylation, serum-starved NIH 3T3 cells ([3]; serum starvation 24 h): inhibits STAT1 S727 phosphorylation
Effect on STAT1 S727 phosphorylation, NIH 3T3 cells after addition of serum ([3]; serum stimulation 1 h): only a minor effect
Effect on basal STAT1 S727 phosphorylation in all the tested tumor cell lines [4]: inhibited
Effect on STAT1 S727 phosphorylation, WT 293 cells under standard conditions and serum-starved [6]: inhibits STAT1 S727 phosphorylation
Effect on serum-stimulated increase of STAT1 S727 phosphorylation, WT 293 cells ([6]; serum stimulation 1 h): only weakly affected
Activity in the cell-based assay (WT, 8KO and 19KO cells) (CDK8/19): an order of magnitude less active
IC50 (CDK8/19; HEK293 WT; 1 h pre-treatment, then 10 ng/mL TNFα 2 h; QPCR; read-out: IC50, CXCL1 mRNA expression, WT): 0.068 µM
IC50 (CDK8/19; HEK293 WT; 1 h pre-treatment, then 10 ng/mL TNFα 2 h; QPCR; read-out: IC50, CXCL8 mRNA expression, WT): 0.081 µM
IC50 (CDK8/19; HEK293 WT; 1 h pre-treatment, then 10 ng/mL TNFα 2 h; QPCR; read-out: IC50, MYC mRNA expression, WT): 0.045 µM

Compound: Cc1n[nH]c2ncc(C(=O)N3CCC[C@H]3c3ccc(Cl)cc3)cc12 [Cmpd4]
Kd (CDK8 [1]): 0.115 µM
Weight loss in mice [7]: detectable weight loss
Kd (GSK3A): 0.45 µM
IC50 (GSK3β): ~0.4 µM and 0.396 µM
Toxicity in TU strain zebrafish embryos [8]: very strong toxicity
Toxicity in dogs (dogs): multiple and striking toxicities, including lethality
IC50 (CDK19 [9]; IC50, CXCL1 mRNA expression): 0.0024 µM
IC50 (CDK19 [9]; IC50, CXCL8 mRNA expression): 0.0019 µM
IC50 (CDK19 [9]; IC50, MYC mRNA expression): 0.0014 µM
Kd (GSK3B): 0.19 µM
Toxicity in dechorionated AB zebrafish larvae [10]: severe toxicity
Toxicity in rats (rats): multiple and striking toxicities, including lethality
IC50 (CDK8 [5]; IC50, CXCL1 mRNA expression, 19KO): 0.0032 µM
IC50 (CDK8 [5]; IC50, CXCL8 mRNA expression, 19KO): 0.0031 µM
IC50 (CDK8 [5]; IC50, MYC mRNA expression, 19KO): 0.0019 µM
Kd (CDK19 [11]): 0.094 µM
IC50 (CDK8/19; read-out: IC50, CXCL1 mRNA expression, WT; HEK293 WT; 1 h pre-treatment, then 10 ng/mL TNFα 2 h; QPCR): 0.0018 µM
IC50 (CDK8/19; read-out: IC50, CXCL8 mRNA expression, WT; HEK293 WT; 1 h pre-treatment, then 10 ng/mL TNFα 2 h; QPCR): 0.0021 µM
IC50 (CDK8/19; read-out: IC50, MYC mRNA expression, WT; HEK293 WT; 1 h pre-treatment, then 10 ng/mL TNFα 2 h; QPCR): 0.0024 µM
